Consider 6 compounds from ChEMBL document CHEMBL1149774, “Synthesis of N-(5,7-diamino-3-phenyl-quinoxalin-2-yl)-3,4,5-substituted anilines and N-[4[(5,7-diamino-3-phenylquinoxalin-2-yl)amino]benzoyl]-l-glutamic acid diethyl ester: evaluation of in vitro anti-cancer and anti-folate activities” (Eur J Med Chem, 2008).

Experiment [1] has as its target Thymidylate synthase (Escherichia coli, UniProt C3SWJ7).
For experiment [2], the target named is T1, Thymidylate synthase (Lactobacillus casei, UniProt P00469).
T1 sequence (P00469 whole entry): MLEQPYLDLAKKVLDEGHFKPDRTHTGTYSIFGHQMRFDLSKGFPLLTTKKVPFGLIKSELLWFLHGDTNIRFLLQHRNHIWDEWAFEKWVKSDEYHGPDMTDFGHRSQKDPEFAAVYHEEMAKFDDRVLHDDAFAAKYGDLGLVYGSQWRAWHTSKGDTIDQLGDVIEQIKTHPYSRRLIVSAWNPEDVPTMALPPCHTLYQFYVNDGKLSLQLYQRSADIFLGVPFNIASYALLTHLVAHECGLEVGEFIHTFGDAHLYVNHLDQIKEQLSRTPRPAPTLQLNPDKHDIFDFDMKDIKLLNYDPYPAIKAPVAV
Description: Inhibition of Lactobacillus casei thymidylate synthase

Experiment [3] deals with Thymidylate synthase (Escherichia coli) (UniProt C3SWJ7). The experiment in a line: Inhibition of Escherichia coli thymidylate synthase at 10 uM.
Sequence of Thymidylate synthase (Escherichia coli) (C3SWJ7 1-264): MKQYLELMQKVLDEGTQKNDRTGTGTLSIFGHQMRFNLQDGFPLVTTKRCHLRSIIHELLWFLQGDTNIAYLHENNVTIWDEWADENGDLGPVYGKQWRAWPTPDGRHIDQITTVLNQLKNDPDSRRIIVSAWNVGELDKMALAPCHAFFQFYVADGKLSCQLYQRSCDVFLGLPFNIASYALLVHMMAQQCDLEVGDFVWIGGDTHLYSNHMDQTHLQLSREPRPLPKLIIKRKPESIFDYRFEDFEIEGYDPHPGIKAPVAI
The subject of the next experiment is CCRF-CEM. The experiment in a line: Growth inhibition of human CCRF-CEM cells after 48 hrs by SRB staining method. Type of experiment: functional. (Sulforhodamine B stains cellular protein and so reports cell mass.)

Activity calls are given as the source filed them. No cut-off for these calls is given here.

Sequence of Thymidylate synthase (Escherichia coli, UniProt C3SWJ7) (C3SWJ7 whole entry): as the sequence (C3SWJ7 1-264) above

For `CCOC(=O)CCC(NC(=O)c1ccc(Nc2nc3cc([N+](=O)[O-])cc([N+](=O)[O-])c3nc2-c2ccccc2)cc1)C(=O)OCC` (stereo unspecified), the inhibition constant (Ki) (as a rule, a dissociation constant, usually derived from enzyme kinetics or from competition with a known ligand) turned out to be 3 µM on Thymidylate synthase [1] and 36 µM at Thymidylate synthase [2]. On to `COc1ccc(Nc2nc3cc([N+](=O)[O-])cc([N+](=O)[O-])c3nc2-c2ccccc2)cc1OC`, for which the Ki came to 1 µM at Thymidylate synthase [1] and 24 µM on Thymidylate synthase [2]. As to `COc1cc(Nc2nc3cc([N+](=O)[O-])cc([N+](=O)[O-])c3nc2-c2ccccc2)cc(OC)c1`, the outcome in experiment [3] was inactive. The compound also returned an inhibition constant (Ki) at Thymidylate synthase [2] of 6 µM. On to `CN(Cc1cnc2nc(N)nc(N)c2n1)c1ccc(C(=O)N[C@@H](CCC(=O)O)C(=O)O)cc1` [METHOTREXATE], for which the GI50 (as a rule, the concentration giving 50% growth inhibition) in the experiment with CCRF-CEM is 0.0398 µM. With `COc1cc(Nc2nc3cc([N+](=O)[O-])cc([N+](=O)[O-])c3nc2-c2ccccc2)cc(OC)c1OC`, the outcome in experiment [3] was inactive. The Ki on Thymidylate synthase [2] was determined as 11 µM.

Take `COc1ccc(Nc2nc3cc([N+](=O)[O-])cc([N+](=O)[O-])c3nc2-c2ccccc2)cc1`: the result in experiment [3] was inactive. The compound further gave an inhibition constant Ki at Thymidylate synthase [2] of 8 µM.
